These results are taken from patent publication US10085976B2, “Pharmaceutical composition for preventing or treating neurodegenerative diseases” (AJOU UNIVERSITY INDUSTRY-ACADEMIC COOPERATION FOUNDATION, priority 2015, dated 2018).

One data set relates to rat microglia. Description: α-syn propagation, two-chamber co-culture with α-syn-overexpressed SH-SY5Y cells, immunostaining (primary microglia). Format: cell-based. The following applies: vs PBS-treated group, FIGS. 10C, 10F. The protocol: FIGS. 10C and 10F are images and graphs showing that α-syn propagation was reduced in rat microglia by treatment of the SHP-1/2 inhibitor, NSC87877. Scale bar indicates 20 μm, and *** P<0.001 represents a comparison with the PBS-treated group.
(§1) The prepared SHP-1 knockdown SH-SY5Y dopaminergic neuronal cell lines (SHP-1 KD1 and SHP-1 KD2) were co-cultured with α-syn-overexpressed SH-SY5Y dopaminergic neuronal cell line using the two-chamber system for 12 hours. The co-culture is briefly summarized as follows. SH-SY5Y or BV2 or OLN93 cell was seeded at a density of 4×10^4 cell per well on a 12-well cover glass, and α-syn-overexpressed SH-SY5Y cell was seeded at a density of 4×10^4 cell per well on a 12-well transwell. Each of the cells was incubated for one day, and then the transwell (α-syn-overexpressed SH-SY5Y cell) was transferred to the 12-well cover glass (SH-SY5Y cell), followed by co-culture for 12 hours, and then immunostaining.

A further data set concerns rat primary microglia. Description: Phagocytosis assay with fluorescent microspheres, aggregated α-syn-treated rat primary microglia. Format: cell-based. The following applies: 20 μM pre-incubation 30 minutes, then 1 NM of aggregated α-syn and fluorescent microspheres for 12 hours, FIG. 4E. The protocol:
(§2) FIGS. 4D and 4E are graphs showing phagocytic activity after pre-incubating BV-2 cell and rat primary microglia with 20 μM of NSC87877 as an SHP-1 inhibitor for 30 minutes, and then incubating them with 1 NM of aggregated α-syn and fluorescent microspheres for 12 hours. ** P<0.01 represents a comparison with the control group.
(§3) Further, BV-2 cells, a murine microglial cell line, were grown in Dulbecco's modified Eagle's Medium (DMEM) supplemented with 5% fetal bovine serum (FBS) and maintained at 37° C. in a humidified atmosphere of 5% CO2. Rat primary microglia from the cerebral cortices of 1-day-old Sprague-Dawley rats were cultured as described in the known literature (Kim, K. S., et al., 2012. J Biol Chem. 287, 24862-72.).
(§4) Briefly, BV-2 cells (5×10^4 cells per well) were cultured in a 12 well plate overnight. The medium was then removed and replaced with fresh DMEM containing 5% FBS. […] The five random fields of cells (>100 cells) were counted under a confocal microscope (Zeiss, Germany). Percentage of phagocytic cells was analyzed by a known method (Park, J. Y., et al., 2008. Glia. 56, 1215-23.). For cell viability assay, BV-2 cells were treated with 1 μM of aggregated α-syn for 12 hours, and then LDH release was measured using an LDH-cytotoxicity assay kit (Biovision, CA) according to the manufacturer's instructions. […]

For data set [1], the system named is BV-2 cells. Description: Phagocytosis assay with fluorescent microspheres, aggregated α-syn-treated BV-2 cells. Format: cell-based, murine. The following applies: 20 μM pre-incubation 30 minutes, then 1 NM of aggregated α-syn and fluorescent microspheres for 12 hours, FIG. 4D. The protocol:
as §2, §3, §4

For data set [2], the system named is A53Tα-syn-overexpressed SHSY5Y cells. The data set can be described thus: Intracellular aggregation of eGFP-tagged A53T α-syn in co-culture, confocal microscopy. Format: cell-based, human. The following applies: co-culture with α-syn-overexpressed SHSY5Y, 5 days after treatment; FIG. 14C. The protocol: FIG. 14C is an image of confocal microscopy after differentiation with retinoic acid for 5 days in the co-culture of A53Tα-syn-overexpressed SHSY5Y and α-syn-overexpressed SHSY5Y under treatment of the SHP-1/2 inhibitor, NSC87877. Scale bar indicates 20 μm.
First, eGPF-tagged A53Tα-syn-overexpressed SHSY5Y cell line was prepared using lentivirus, and the prepared eGPP-tagged A53Tα-syn-overexpressed SHSY5Y cell line and α-syn-overexpressed SHSY5Y cell line were mixed, followed by co-culture. […] At 5 days after the co-culture, intracellular distribution of eGFP-tagged A53Tα-syn was observed under confocal microscopy.
In this regard, the SHP-1/2 inhibitor, NSC87877 was treated and A53Tα-syn-overexpressed SHSY5Y cell line and α-syn-overexpressed SHSY5Y cell line were mixed, followed by co-culture. At 5 days after NSC 87877 treatment and co-culture, intracellular distribution of eGFP-tagged A53Tα-syn was observed under confocal microscopy.

The subject of data set [3] is BV-2 cells. Description: α-syn propagation, two-chamber co-culture with α-syn-overexpressed SH-SY5Y cells, immunostaining (BV-2). Format: cell-based, murine. The following applies: co-culture 12 hours, vs PBS-treated group, FIGS. 10B, 10E. How it is done: FIGS. 10B and 10E are images and graphs showing that α-syn propagation was reduced by treatment of SHP-1/2 inhibitor, NSC87877. *** P<0.001 represents a comparison with the PBS-treated group.
as §1

For a further data set, the system named is SH-SY5Y cells. The data set can be described thus: α-syn propagation, two-chamber co-culture with α-syn-overexpressed SH-SY5Y cells, immunostaining (SH-SY5Y). Format: cell-based, human. The following applies: co-culture 12 hours, vs PBS-treated group, FIGS. 10I, 10K. How it is done: FIGS. 10I and 10K are images and graphs showing that propagation of aggregated α-syn is reduced in SH-SY5Y cell line treated with the SHP-1,2 inhibitor NSC87877, similar to the SHP-1 knockdown cells. *** P<0.001 represents a comparison with the PBS-treated group.
as §1

A further data set relates to OLN 93 cell line. Description: α-syn propagation, two-chamber co-culture with α-syn-overexpressed SH-SY5Y cells, immunostaining (OLN 93). Format: cell-based. To be noted: OLN 93 cells; co-culture 12 hours; vs PBS-treated group; FIGS. 10N, 10P. The protocol:
FIGS. 10N and 10P are images and graphs showing that propagation of α-syn is reduced in OLN 93 cell line treated with the SHP-1,2 inhibitor NSC87877. *** P<0.001 represents a comparison with the PBS-treated group.
as §1

Data set [4] concerns differentiated SH-SY5Y cells. Description: LDH release cytotoxicity assay, aggregated α-syn on differentiated SH-SY5Y dopaminergic neurons. Format: cell-based, human. The following applies: 1 μM aggregated α-syn and 50 μM inhibitor for 2 days, FIG. 12B. The text has this: FIG. 12B is a graph showing the effect of the SHP-1/2 inhibitor, NSC87877 on cytotoxicity of aggregated α-syn in undifferentiated SH-SY5Y cells and differentiated SH-SY5Y cells.
FIGS. 12C and 12D are images and graphs showing the effect of the SHP-1/2 inhibitor, NSC87877 on cytotoxicity of aggregated α-syn in differentiated SH-SY5Y cells. ** P<0.01 represents a comparison with the PBS-treated SHSY5Y.
To differentiate SH-SY5Y cells to dopaminergic neurons, SH-SY5Y cells seeded in a culture plate were cultured in a medium containing 50 μM of retinoic acid for 5 days. In this regard, the medium was replaced by a fresh medium containing 50 μM of retinoic acid at 3 days, 4 days, and 5 days after initiation of the culture. Further, in order to assess cytotoxicity, the differentiated SH-SY5Y dopaminergic neurons and undifferentiated SH-SY5Y dopaminergic neurons were seeded in 12-well, respectively, followed by incubation for one day. Thereafter, they were cultured in a medium containing 1 μM of aggregated α-syn and 50 μM of the SHP-1/-2 inhibitor NSC87877 for 2 days, and LDH (lactate dehydrogenase) release assay was performed according to the manufacturer's instructions.
On the technique in general: LDH leaks from cells whose membrane has failed.

As for `O=S(=O)(O)c1ccc2cc(N=Nc3cc(S(=O)(=O)O)c4cccnc4c3O)ccc2c1` [NSC87877], the α-syn propagation entry in the data set on rat microglia was “reduced α-syn propagation was observed”; with BV-2 cells [3], “α-syn propagation was also reduced”; in the data set on SH-SY5Y cells, “α-syn propagation was also reduced”; in the data set on OLN 93 cell line, “α-syn propagation was also reduced”. Further, the “Effect on inhibition of microglial phagocytosis by aggregated α-syn” value with rat primary microglia and in the data set with BV-2 cells [1] was “efficiently rescued the inhibitory effect of aggregated α-syn on microglial phagocytosis” throughout. For the same compound, in data set [2], the “Intracellular aggregation of eGFP-tagged A53Tα-syn (eGFP distribution)” value is recorded as “no aggregation in the cells”. Further, the “Neurotoxicity (cytotoxicity, LDH release) by aggregated α-syn” value in data set [4] is given as “neurotoxicity by aggregated α-syn was reduced”.
